Reference: patent US7968294B2, “SLIT2 underexpression in metastatic prostate cancer” (The Regents of the University of Michigan, priority 2008, dated 2011)
Entries after “also recorded” stand apart in the source; their conditions may differ.

Tested on: SLIT2 expression in prostate cancer cell lines
Test: QRT-PCR analysis of SLIT2 transcript after compound treatment
Type: cell-based, human
Conditions: normalized to GAPDH housekeeping gene, FIG. 4c-e, DU145 prostate cancer cell lines, 5 uM SAHA time-course in panel d

SMILES | SLIT2 expression (transcript level)
O=C(CCCCCCC(=O)Nc1ccccc1)NO [SAHA] | restore the expression level of SLIT2; also recorded: up-regulated
Nc1nccc2c1ncn2C1C=C(CO)C(O)C1O (centres unmarked) [DZNep] | Marked up-regulation
